Test results from patent US20240182427A1, “SOLID DOSAGE FORMS OF A PLASMA KALLIKREIN INHIBITOR” (Rezolute, Inc., priority 2022, published 2024).

How the values were obtained:
[1] = Intestinal permeability / solubility classification (BCS)
[2] = Aqueous solubility of anhydrous Crystalline Form I; assay type: physicochemical; settings: water (aqueous); anhydrous Crystalline Form I of acetate salt, at 25° C.
[3] = tested on: model of hemorrhagic stroke; settings: cited from earlier work
[4] = tested on: angiotensin-II-treated rodents; settings: cited from earlier work
[5] = tested on: rat model of ischemic stroke; settings: cited from earlier work
[6] = tested on: patients with hereditary angioedema; settings: cited from earlier work
[7] = tested on: animal model of ischemic stroke; settings: cited from earlier work
[8] = tested on: mouse model of middle cerebral artery occlusion; settings: cited from earlier work

In the case of N=C(N)c1ccc(CNC(=O)c2cnn(Cc3ccccc3)c2)cc1 [Compound 1, 1-benzyl-1H-pyrazole-4-carboxylic acid 4-carbamimidoylbenzylamide], the BCS class [1] is reported as “BCS Class 3”, the solubility [1] is reported as “high” and the solubility [2] is reported as about 8300 µg/mL. The “expansion of intracerebral hemorrhage” value [3] was “reduce”, the retinal vascular permeability [4] was “reduce” and the cerebrovascular edema [5] was “reduce”. For the same molecule, the infarction volume [5] was “reduce”.

In the case of NC(N)=NCCC[C@@H](N)C(=O)N[C@@H](CCCN=C(N)N)C(=O)N1CCC[C@H]1C(=O)N1C[C@H](O)C[C@H]1C(=O)NCC(=O)N[C@@H](Cc1cccs1)C(=O)N[C@@H](CO)C(=O)N1Cc2ccccc2C[C@@H]1C(=O)N1[C@H](C(=O)N[C@@H](CCCN=C(N)N)C(=O)O)C[C@@H]2CCCC[C@@H]21 [icatibant], the treating hereditary angioedema ([6]; human, in vivo) is listed as “effective”.

For Hoe-140 [reference compound], the retinal vascular permeability [4] is listed as “reduce”.

For ecallantide, the “edema in patients with hereditary angioedema” value ([6]; patients) is given as “alleviates”, the brain edema [7] is given as “reduced” and the infarct volume [7] is given as “reduced”. For the same molecule, the neurological deficits [7] was “reduced”.

B1: C1-INH: the major endogenous inhibitor of PK (protein, UniProt P05155 23-500, looked up)
Plasma protease C1 inhibitor: NPNATSSSSQDPESLQDRGEGKVATTVISKMLFVEPILEVSSLPTTNSTTNSATKITANTTDEPTTQPTTEPTTQPTIQPTQPTTQLPTDSPTQPTTGSFCPGPVTLCSDLESHSTEAVLGDALVDFSLKLYHAFSAMKKVETNMAFSPFSIASLLTQVLLGAGENTKTNLESILSYPKDFTCVHQALKGFTTKGVTSVSQIFHSPDLAIRDTFVNASRTLYSSSPRVLSNNSDANLELINTWVAKNTNNKISRLLDSLPSDTRLVLLNAIYLSAKWKTTFDPKKTRMEPFHFKNSVIKVPMMNSKKYPVAHFIDQTLKAKVGQLQLSHNLSLVILVPQNLKHRLEDMEQALSPSVFKAIMEKLEMSKFQPTLLTLPRIKVTTSQDMLSIMEKLEFFDFSYDLNLCGLTEDPDLQVSAMQHQTVLELTETGVEAAAASAISVARTLLVFEVQQPFLFVLWDQQHKFPVFMGRVYDPRA
In the case of B1, the infarct size [8] is given as “reduced”.
